Measurements as given in patent US9884886B2, “Disulfide masked prodrug compositions and methods” (Merck Sharp & Dohme Corp., priority 2012, dated 2018).

Assay: Exposure of DTE- or DTT-based dimers to glutathione, release of dimer phosphodiester
Assay type: physicochemical
Experimental: The half life of prodrug-dimer 5-2 was dependent on the character and excess of the reducing reagent (500:1/Prodrug:GSH), in this instance approximately 4 hours. The kinetics of the release was also dependent on pH and 1M TRIS hydrochloride buffers of pH values varied between 5.0 and 7.8 were used.

Q: For `C#CCO[C@@H]1CSSC[C@H]1OP(=O)(OC[C@H]1O[C@@H](n2ccc(=O)[nH]c2=O)[C@H](OC)[C@@H]1OC(=O)CCC(C)=O)O[C@H]1[C@@H](OC)[C@H](n2ccc(=O)[nH]c2=O)O[C@@H]1COC(c1ccccc1)(c1ccc(OC)cc1)c1ccc(OC)cc1` (stereo partly drawn) [Compound 5-2, (2R,3R,4R,5R)-2-{[({[(2R,3R,4R,5R)-2-{[bis(4-methoxyphenyl)(phenyl)methoxy]methyl}-5-(2,4-dioxo-3,4-dihydropyrimidin-1(2H)-yl)-4-methoxytetrahydrofuran-3-yl]oxy}{[(4S,5S)-5-(prop-2-yn-1-yloxy)-1,2-dithian-4-yl]oxy}phosphoryl)oxy]methyl}-5-(2,4-dioxo-3,4-dihydropyrimidin-1(2H)-yl)-4-methoxytetrahydrofuran-3-yl 4-oxopentanoate], which half-life (1M TRIS hydrochloride buffer with glutathione (GSH), pH 7.3, 500:1/Prodrug:GSH, pH 7.30, 1M TRIS hydrochloride buffer) is on record?
A: The half-life was roughly 4 h.

Q: What about the “release at acidic conditions” value (buffers of pH between 5.0 and 7.8) of the same compound?
A: Its value is “considerably slower”.
